Positions of bridges follow the written chain, without caps; N, C: chain ends. Chains are numbered I, II in the order given. No end group written: not given here. *: point of attachment. X1 = CC(=O)N[C@@H]1[C@@H](O)[C@H](O[C@@H]2O[C@H](CO)[C@@H](O[C@@H]3O[C@H](CO[C@H]4O[C@H](CO)[C@@H](O)[C@H](O)[C@@H]4O[C@@H]4O[C@H](CO)[C@@H](O[C@@H]5O[C@H](CO[C@]6(C(=O)OCc7ccccc7)C[C@H](O)[C@@H](NC(C)=O)[C@H]([C@H](O)[C@H](O)CO)O6)[C@H](O)[C@H](O)[C@H]5O)[C@H](O)[C@H]4NC(C)=O)[C@@H](O)[C@H](O[C@H]4O[C@H](CO)[C@@H](O)[C@H](O)[C@@H]4O[C@@H]4O[C@H](CO)[C@@H](O[C@@H]5O[C@H](CO[C@]6(C(=O)OCc7ccccc7)C[C@H](O)[C@@H](NC(C)=O)[C@H]([C@H](O)[C@H](O)CO)O6)[C@H](O)[C@H](O)[C@H]5O)[C@H](O)[C@H]4NC(C)=O)[C@@H]3O)[C@H](O)[C@H]2NC(C)=O)[C@@H](CO)O[C@H]1NC(=O)C*; undeca‑saccharide = not defined here; Decanoyl = CCCCCCCCCC(=O)*
Columns and labels:
[1] = Pharmacokinetics after subcutaneous administration, Exendin-4 EIA (part II); settings: mouse, in vivo, sc
rat islets = assay: Glucose-dependent insulin secretion from rat islets, rat insulin ELISA (part II); type: cell-based; settings: 28 mM glucose, Table 9
Text: The pancreas of 8-week-old SD rats (Damul Science) was extracted, and islets were isolated.

C57BKS/J dbdb mice = assay: Anti-diabetic (blood glucose lowering) effect in Type 2 diabetes mouse models; settings: 20 nmole/kg s.c., 0-48 hours
human GLP-1R [2] = biological target: human GLP-1R (Homo sapiens, UniProt P43220); assay: GLP-1 receptor luciferase reporter assay (part II, dimer analogs); settings: CV-1 cells transfected with human GLP-1R and CRE, Table 8
Experimental: Specifically, the fibroblast cell line CV-1 (1×10^4 cells/ml, Korea Cell Line Bank) was cultured on a 96-well white cell culture plate for 24 hours, and then human GLP-1R (pcDNA3.1_hGLP-1R) and cAMP response element (CRE, pcDNA3.1_hCRE) were added to perform transfection. After 24 hours, the medium was exchanged with a serum-free medium, followed by culture for 16 hours, and then each analog was treated for 6 hours. The expression level of luciferase, a reporter gene, by activated GLP-1R, was quantified by a luminometer, and the results are shown in Table 8.

human GLP-1R [3] = biological target: T1, human GLP-1R (human, UniProt P43220 24-463); assay: cell-based or functional assay
human GLP-1R [4] = biological target: T1, human GLP-1R; assay: cell-based or functional assay; remark: listed apart in the source

human GLP-1R (Homo sapiens, UniProt P43220), sequence (P43220 24-463): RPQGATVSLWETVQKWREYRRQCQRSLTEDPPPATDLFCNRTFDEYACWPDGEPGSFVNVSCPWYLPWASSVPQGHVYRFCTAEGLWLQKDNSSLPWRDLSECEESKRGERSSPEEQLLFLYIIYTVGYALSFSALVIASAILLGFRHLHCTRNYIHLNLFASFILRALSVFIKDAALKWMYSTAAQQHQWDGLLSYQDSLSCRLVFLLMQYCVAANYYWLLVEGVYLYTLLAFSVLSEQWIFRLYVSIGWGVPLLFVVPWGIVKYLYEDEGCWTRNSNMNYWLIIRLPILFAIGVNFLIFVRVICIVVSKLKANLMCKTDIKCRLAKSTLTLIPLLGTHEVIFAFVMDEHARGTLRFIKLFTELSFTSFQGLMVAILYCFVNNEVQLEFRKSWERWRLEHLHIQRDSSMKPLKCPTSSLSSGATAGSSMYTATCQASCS

With “I: H-HGEGTFTSDLSKQMEECAVRLFIEWLKC(X1)GGPSK(Decanoyl)-OH / II: H-HGEGTFTSDLSKQMEECAVRLFIEWLKC(X1)GGPSK(Decanoyl)-OH (disulfide I:17-II:17) [AGM-212-2, AGM-212(E17C & N28C-11 sugar)-S-S-AGM-212(E17C & N28C-11 sugar)]” the Tmax [1] was 2 h, the half-life [1] was 291 min and the “Insulin secretion from rat islets” value (rat islets; 10 nM analog) was 14446.79 ± 654.34 pg/mL. The “Insulin secretion from rat islets” value (rat islets; 100 nM analog) was 24954.72 ± 2741.89 pg/mL, the “anti-diabetic effect (blood glucose lowering)” value (C57BKS/J dbdb mice) was “increased degree of blood glucose lowering compared with Ex4 and AGM-212” and the “Emax (fold induction over basal)” value (human GLP-1R [2]) was 10.2 ± 1.3 fold induction over basal.

In the case of `CCCCCCCCCC(=O)NCCCC[C@H](NC(=O)[C@H](CO)NC(=O)[C@@H]1CCCN1C(=O)CNC(=O)CNC(=O)[C@H](CC(N)=O)NC(=O)[C@H](CCCCN)NC(=O)[C@H](CC(C)C)NC(=O)[C@H](Cc1c[nH]c2ccccc12)NC(=O)[C@H](CSCC(=O)N[C@@H]1O[C@H](CO)[C@@H](O[C@@H]2O[C@H](CO)[C@@H](O[C@@H]3O[C@H](CO[C@H]4O[C@H](CO)[C@@H](O)[C@H](O)[C@@H]4O[C@@H]4O[C@H](CO)[C@@H](O[C@@H]5O[C@H](CO[C@]6(C(=O)OCc7ccccc7)C[C@H](O)[C@@H](NC(C)=O)[C@H]([C@H](O)[C@H](O)CO)O6)[C@H](O)[C@H](O)[C@H]5O)[C@H](O)[C@H]4NC(C)=O)[C@@H](O)[C@H](O[C@H]4O[C@H](CO)[C@@H](O)[C@H](O)[C@@H]4O[C@@H]4O[C@H](CO)[C@@H](O[C@@H]5O[C@H](CO[C@]6(C(=O)OCc7ccccc7)C[C@H](O)[C@@H](NC(C)=O)[C@H]([C@H](O)[C@H](O)CO)O6)[C@H](O)[C@H](O)[C@H]5O)[C@H](O)[C@H]4NC(C)=O)[C@@H]3O)[C@H](O)[C@H]2NC(C)=O)[C@H](O)[C@H]1NC(C)=O)NC(=O)[C@@H](NC(=O)[C@H](Cc1ccccc1)NC(=O)[C@H](CC(C)C)NC(=O)[C@H](CCCNC(=N)N)NC(=O)[C@@H](NC(=O)[C@H](C)NC(=O)[C@H](CSSC[C@H](NC(=O)[C@H](CCC(=O)O)NC(=O)[C@H](CCC(=O)O)NC(=O)[C@H](CCSC)NC(=O)[C@H](CCC(N)=O)NC(=O)[C@H](CCCCN)NC(=O)[C@H](CO)NC(=O)[C@H](CC(C)C)NC(=O)[C@H](CC(=O)O)NC(=O)[C@H](CO)NC(=O)[C@@H](NC(=O)[C@H](Cc1ccccc1)NC(=O)[C@@H](NC(=O)CNC(=O)[C@H](CCC(=O)O)NC(=O)CNC(=O)[C@@H](N)Cc1c[nH]cn1)[C@@H](C)O)[C@@H](C)O)C(=O)N[C@@H](C)C(=O)N[C@H](C(=O)N[C@@H](CCCNC(=N)N)C(=O)N[C@@H](CC(C)C)C(=O)N[C@@H](Cc1ccccc1)C(=O)N[C@H](C(=O)N[C@@H](CSCC(=O)N[C@@H]1O[C@H](CO)[C@@H](O[C@@H]2O[C@H](CO)[C@@H](O[C@@H]3O[C@H](CO[C@H]4O[C@H](CO)[C@@H](O)[C@H](O)[C@@H]4O[C@@H]4O[C@H](CO)[C@@H](O[C@@H]5O[C@H](CO[C@]6(C(=O)OCc7ccccc7)C[C@H](O)[C@@H](NC(C)=O)[C@H]([C@H](O)[C@H](O)CO)O6)[C@H](O)[C@H](O)[C@H]5O)[C@H](O)[C@H]4NC(C)=O)[C@@H](O)[C@H](O[C@H]4O[C@H](CO)[C@@H](O)[C@H](O)[C@@H]4O[C@@H]4O[C@H](CO)[C@@H](O[C@@H]5O[C@H](CO[C@]6(C(=O)OCc7ccccc7)C[C@H](O)[C@@H](NC(C)=O)[C@H]([C@H](O)[C@H](O)CO)O6)[C@H](O)[C@H](O)[C@H]5O)[C@H](O)[C@H]4NC(C)=O)[C@@H]3O)[C@H](O)[C@H]2NC(C)=O)[C@H](O)[C@H]1NC(C)=O)C(=O)N[C@@H](Cc1c[nH]c2ccccc12)C(=O)N[C@@H](CC(C)C)C(=O)N[C@@H](CCCCN)C(=O)N[C@@H](CC(N)=O)C(=O)NCC(=O)NCC(=O)N1CCC[C@H]1C(=O)N[C@@H](CO)C(=O)N[C@@H](CCCCNC(=O)CCCCCCCCC)C(=O)O)[C@@H](C)CC)C(C)C)NC(=O)[C@H](CCC(=O)O)NC(=O)[C@H](CCC(=O)O)NC(=O)[C@H](CCSC)NC(=O)[C@H](CCC(N)=O)NC(=O)[C@H](CCCCN)NC(=O)[C@H](CO)NC(=O)[C@H](CC(C)C)NC(=O)[C@H](CC(=O)O)NC(=O)[C@H](CO)NC(=O)[C@@H](NC(=O)[C@H](Cc1ccccc1)NC(=O)[C@@H](NC(=O)CNC(=O)[C@H](CCC(=O)O)NC(=O)CNC(=O)[C@@H](N)Cc1c[nH]cn1)[C@@H](C)O)[C@@H](C)O)C(C)C)[C@@H](C)CC)C(=O)O` [AGM-212-1, AGM-212(E17C & E24C-11 sugar)-S-S-AGM-212(E17C & E24C-11 sugar)], the “Insulin secretion from rat islets” value (rat islets; 10 nM analog) is reported as 14506.04 ± 3493.9 pg/mL, the “Insulin secretion from rat islets” value (rat islets; 100 nM analog) is reported as 20080 ± 8384.9 pg/mL and the “anti-diabetic effect (blood glucose lowering)” value (C57BKS/J dbdb mice) is reported as “reduced anti-diabetic effect”. The “Emax (fold induction over basal)” value (human GLP-1R [2]) was 10.1 ± 1.2 fold induction over basal.

In the case of HGEGTFTSDLSKQMEECAVRLFIEWLKC(undeca‑saccharide)GGPSK(Decanoyl) (reading uncertain; also: homodimer via Cys17–Cys17 disulfide) [AGM-212-2], the “fold change of EC50 level compared with Ex4 (luciferase reporter)” value (human GLP-1R [3]) is reported as ≥ 6 fold and the “Emax (fold induction over basal), CRE-luciferase reporter” value (human GLP-1R [4]) is reported as 10.2 fold induction over basal.

— US20220323548A1 (priority 2019, published 2022)
